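Assay format: 96-well plates, 48-hour exposure. TGI marks complete inhibition of growth.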
How the values were obtained:
Experiment in all cases: growth of human tumour cells (NCI), 48 h
[1] = tested on: SNB-75 CNS
[2] = tested on: HCC-2998 colon
[3] = tested on: SF-295 CNS
[4] = tested on: M14 melanoma
[5] = tested on: 786-0 renal
[6] = tested on: CCRF-CEM leukemia
[7] = tested on: UO-31 renal
[8] = tested on: MDA-MB-435
[9] = tested on: MDA-MB-231 breast
[10] = tested on: NCI/ADR-RES ovarian

Row | Compound | TGI [1] [µM] | TGI [2] [µM] | TGI [3] [µM] | TGI [4] [µM] | TGI [5] [µM] | TGI [6] [µM] | TGI [7] [µM] | TGI [8] [µM] | TGI [9] [µM] | TGI [10] [µM]
1 | COC(=O)[C@H](CC(C)C)NC(=O)[C@H](Cc1ccccc1)N1CC2C=CC1C2 (stereo partly drawn) | > 100 | > 100 | > 100 | > 100 | > 100 | > 100 | > 100 | – | – | –
2 | CN(c1ccccc1)S(=O)(=O)c1ccc([N+](=O)[O-])cc1 | – | – | > 100 | > 100 | > 100 | – | > 100 | > 100 | > 100 | > 100
3 | COc1ccc2nc3c([N+](=O)[O-])ccc(NCCN(C)C)c3c(N)c2c1 | 2.62 | – | 3.62 | 3.03 | 3.31 | 0.531 | 2.87 | – | 1.27 | 3.03
4 | CC(C)OP(=S)(NC(=S)c1ccccc1)OC(C)C | > 100 | > 100 | > 100 | > 100 | > 100 | > 100 | > 100 | – | – | –
5 | COC1OCC(O)C(NC(=O)N(C)N=O)C1O (stereo not drawn) | > 100 | > 100 | > 100 | – | – | > 100 | > 100 | – | – | > 100
6 | COc1cccc2c1OC1Sc3ccccc3-c3nn(-c4ccccc4)c-2c31 (stereo not drawn) | > 100 | > 100 | > 100 | – | > 100 | > 100 | > 100 | – | – | –
7 | O=C(Cc1nc2ccc(C(=O)c3ccccc3)cc2[nH]c1=O)C(=O)Nc1nc2ccccc2[nH]1 | > 100 | > 100 | > 100 | > 100 | > 100 | > 100 | > 100 | – | – | –
8 | Fc1ccc(-c2sc(-c3ccsc3)cc2Cc2ccsc2)cc1 | > 10 | > 10 | > 10 | > 10 | > 10 | > 10 | – | > 10 | > 10 | –
9 | Cc1cc2cc3cc(C)c(N)cc3nc2cc1N | 6.9 | – | 1.41 | 21.9 | 1.75 | 2.52 | 10.4 | 11 | 1.27 | 9.83
10 | O=C1c2cc(I)ccc2N2CCN=C2N1Cc1ccccc1 | 39.7 | – | > 100 | > 100 | > 100 | > 100 | > 100 | > 100 | > 100 | > 100
11 | O=C1C=C(Nc2ccccc2C(=O)CC(=O)C(=O)Nc2ccc(Cl)cc2)c2ccccc2C1=O | 36 | 35.8 | – | 24.1 | 62.1 | 33.1 | 65.6 | – | – | –
12 | CC1=NN(C(=O)Cc2ccccc2)C(=O)/C1=C\c1ccc([N+](=O)[O-])cc1 | – | > 100 | > 100 | > 100 | > 100 | > 100 | > 100 | – | – | –
13 | CCn1c2nc(=O)n(CCCCCCCCSC(c3ccccc3)(c3ccccc3)c3ccccc3)c(=O)c-2nc2ccccc21 | – | 19.6 | > 100 | 31.6 | > 100 | > 100 | > 100 | > 100 | > 100 | > 100
14 | c1coc(-c2nccc3c2[nH]c2ccccc23)c1 | – | > 100 | > 100 | > 100 | > 100 | > 100 | – | > 100 | > 100 | > 100
